From patent US20250049678A1, “COMPOUNDS ATTACHABLE TO SKIN” (Inkbox Ink Incorporated, priority 2021, published 2025)

Assays:
[1] = UV/visible absorbance after reacting the compound with lysine to mimic skin binding; format: physicochemical; settings: for visible color after reaction with lysine / UV-light absorption after reaction with lysine: lysine conjugate, mimic of skin binding; for visible color after reaction with lysine: absorbance at wavelengths above 410 nm; for UV-light absorption after reaction with lysine: absorbance at wavelengths below 410 nm; for shift in UV absorbance peak on reaction with lysine: compound versus its lysine conjugate; for UV blocking activity: FIG. 6, salicylic acid as such, attached to hydrogenated genipin anchor, and bound to skin mimic; for absorbance properties / color of the dye compound after binding to lysine: versus the dye compound prior to conjugation with lysine, in solution, FIG. 3D
From the text: A hydrogenated genipin derivative (compound 1) was conjugated with lysine to obtain compound 1-lysine conjugate:
The azo-dye compound of example 5 was conjugated with lysine to obtain a conjugate:
The compound of Example 7 was conjugated with lysine to obtain the lysine conjugate:
The OL compound of example 8 was conjugated with lysine to obtain OL-lysine conjugate: […]

[2] = system: skin substrate (a porcine skin explant); assay: Sunscreen application on skin substrate: UV-light absorption and retention after wiping, washing and scrubbing
From the text: When referring to protective groups hydrolysable under physiological conditions after application of the topical composition onto the skin here and elswhere in the dislcosure: Such groups are readily known to the skilled person and include, in particular acyl moieties such as optionally substituted acyl moieties comprising 1 to 30, more specifically 1 to 16, and in particular 1 to 12, carbon atoms; 0 to 12, more specifically 0 to 8, and in particular 0 to 6 oxygen atoms; 0 to 8, more specifically 0 to 6, and in particular 0 to 4 nitrogen atoms; 0 to 6, more specifically 0 to 4, and in particular 0 to 3 sulfur atoms; and 0 to 10, more specifically 0 to 8, and in particular 0 to 6 halogen atoms. Specific examples include C1-C18 acyl moieties, more specifically C1-C12 acyl moieties and in particular […]. When referring in this context to “physiological conditions” it should be understood that this in particular refers to the pH conditions encountered at the locus where the compound of formula (I) is supposed to bind to proteins in e.g. the stratum corneum and/or the epidermis of the (mammalian, in particular human) subject to be treated. […]

| SMILES | visible color after reaction with lysine [1] | UV-light absorption after reaction with lysine [1] | shift in UV absorbance peak on reaction with lysine [1] | also measured |
| --- | --- | --- | --- | --- |
| COC(=O)C1=CN(CCCCC(N)C(=O)O)C=C2C(C)CCC12 (stereo not drawn) [compound 1-lysine conjugate] | no visible color | strong UV-light absorption |  |  |
| CCCCC(CC)COC(=O)c1ccccc1O (stereo not drawn) [octisalate] |  |  |  | UV-light absorption on the skin substrate and removability after wiping ([2]; 50 mM solutions, 2 and 4 hours after application, wiped with a wet tissue at 4 hours, UV light 254 nm, FIG. 4): easily removable from the skin; UV-light absorption / presence on the skin substrate after washing and scrubbing ([2]; 24 and 26 hours total contact time, submerged in water for 2 hours and scrubbed vigorously, UV camera with UV-B filter, FIG. 5): no longer present |
| COC(=O)C1=CN(CCCCC(N)C(=O)O)C=C2C(COC(=O)c3ccccc3O)CCC12 (stereo not drawn) | no visible color | strong UV-light absorption |  |  |
| C/C=C1/[C@H](O)OC=C(C(=O)OC)[C@H]1CC(=O)OCCc1ccc(O)c(O)c1 [OL, methyl (4s,5e,6r)-4-[2-[2-(3,4-dihydroxyphenyl)ethoxy]-2-oxoethyl]-5-ethylidene-6-hydroxy-4h-pyran-3-carboxylate] | almost no visible color |  | small shift in UV absorbance peak |  |
| COC(=O)C1=COC(O)C2C(C)CCC12 (stereo not drawn) [Compound 1, methyl 1-hydroxy-7-methyl-1,4a,5,6,7,7a-hexahydrcyclopenta[c]pyran-4-carboxylate] | no visible color | strong UV-absorption | small shift |  |
| COC(=O)C1=COC(O)C2C(COC(=O)c3ccccc3O)CCC12 (stereo not drawn) [Example 7, methyl 1-hydroxy-7-(((2-hydroxybenzoyl)oxy)methyl)-1,4a,5,6,7,7a-hexahydrocyclopenta[c]pyran-4-carboxylate] | no visible color is produced |  | small shift in UV absorbance peak | UV blocking activity [1]: retained |
| O=C(O)c1ccccc1O [salicylic acid, reference compound] |  |  |  | UV blocking activity [1]: UV blocking agent |
| C=CC1=CN(CCCCC(N)C(=O)O)C=C(C(=O)OC)C1CC(=O)OCCc1ccc(O)c(O)c1 (stereo not drawn) | no visible color | strong UV-light absorption |  |  |
| COC(=O)C1=COC(O)C2C(COC(=O)c3ccc(/N=N/c4ccccc4)cc3)CCC12 (stereo not drawn) [Example 5, methyl (E)-1-hydroxy-7-(((4-(phenyldiazenyl)benzoyl)oxy)methyl)-1,4a,5,6,7,7a-hexahydrocyclopenta[c]pyran-4-carboxylate] |  |  |  | absorbance properties / color of the dye compound after binding to lysine [1]: does not alter absorbance properties; absorbance properties / color of the dye compound after binding to lysine ([1]; listed as azo-dye-anchor molecule): retains its original color |
| COC(=O)C1=COC(O)C2C(CO)CCC12 (stereo not drawn) [Compound 2, methyl 1-hydroxy-7-(hydroxymethyl)-1,4a,5,6,7,7a-hexahydrocyclopenta[c]pyran-4-carboxylate] | no visible color | strong UV-light absorption |  |  |
